Converted amounts (≈) assume the structure as drawn.
Legend:
Test in all cases: MIC assay (Experiments II)
Assay type in all cases: cell-based
[1] = test system: Streptococcus mutans ATCC 31341; conditions: ATCC31341, S. mutans ATCC 31341, 24 hours, read-out: Minimal inhibitory concentration
Protocol: (§1) A test sample of water containing water clusters at a concentration of approximately 150 million water clusters per drop of water, with an average water droplet size of 500 microns in diameter, was stored at room temperature until required. The sample of water was prepared according to the methods described in S. Y. Lo et al., Evidence for the existence of stable-water-clusters at room temperature and normal pressure. Physics Letters A (2009)). Linezolid diluted in dimethyl sulfoxide was used as a control.
(§2) The test sample of water containing water clusters was added to the first well of a 96-well plate. 2-fold dilutions were performed into all of the wells of that row containing cation-adjusted Mueller-Hinton Broth (CA-MHB) with 5% lysed horse blood except for the last well, which was used as a control without any testing agent. This was repeated in Brain Heart Infusion (BHI) broth. The Linezolid control followed a similar protocol but was diluted to 8 μg/mL in the first well, followed by 2-fold serial dilutions into both CA-MHB with 5% lysed horse blood and BHI broth.
(§3) Streptococcus mutans ATCC 31341, Streptococcus pneumonia ATCC 49619, and Streptococcus pyogenes ATCC 51339 were obtained from the American Type Culture Collection (Manassas, Va.). All strains were maintained as frozen glycerol stocks at −80° C. Working stocks were prepared by streaking bacteria onto Sheep Blood Agar plates, growing at 37° C. with 5% CO2 for 24 hours and suspending isolated colonies in 3 mL of 0.9% sterile saline to approximately 1×10^8 CFU/mL.
(§4) Bacterial working stocks were diluted into appropriate liquid media for a final inocula of about 5×10^6 CFU/mL. CA-MHB with 5% lysed horse blood was used for all the Streptococcus spp. While BHI broth was also used for S. mutans. 10 μL of stock suspension was added to each well of a 96-well MIC plate treated with the test sample of water containing water clusters. […] The plates were incubated at 35° C. with 5% CO2 for a full 24 hours before reading.

[2] = test system: Streptococcus pneumonia ATCC 49619; conditions: Streptococcus pneumoniae, ATCC49619; S. pneumonia ATCC 49619; 24 hours; read-out: Minimal inhibitory concentration
Protocol: as §1, §2, §3, §4

[3] = test system: Streptococcus pyogenes ATCC 51339; conditions: ATCC51339, S. pyogenes ATCC 51339, 24 hours, read-out: Minimal inhibitory concentration
Protocol: as §1, §2, §3, §4

- MIC [1]: 1 µg/mL (≈ 2.96 µM)
- MIC [2]: 1 µg/mL (≈ 2.96 µM)
- MIC [3]: 1 µg/mL (≈ 2.96 µM)
Structure (SMILES): CC(=O)NC[C@H]1CN(c2ccc(N3CCOCC3)c(F)c2)C(=O)O1 [Linezolid]

— patent US20170290854A1, “COMPOSITIONS AND METHODS FOR TREATING AND PREVENTING BACTERIAL INFECTIONS” (K10 Technologies, Inc., priority 2014, published 2017)
